In ChEMBL document CHEMBL1138445, “Design and synthesis of potent inhibitors of cholesteryl ester transfer protein (CETP) exploiting a 1,2,3,4-tetrahydroquinoline platform” (Bioorg Med Chem Lett, 2009):

Experiments:
[1] = target: T1, Cholesteryl ester transfer protein (Homo sapiens) (UniProt P11597); experiment: Inhibition of human plasma derived CETP relative to control; design: concentration or dose not given beside the values; conditions: concentration not given here
T1 sequence (whole entry): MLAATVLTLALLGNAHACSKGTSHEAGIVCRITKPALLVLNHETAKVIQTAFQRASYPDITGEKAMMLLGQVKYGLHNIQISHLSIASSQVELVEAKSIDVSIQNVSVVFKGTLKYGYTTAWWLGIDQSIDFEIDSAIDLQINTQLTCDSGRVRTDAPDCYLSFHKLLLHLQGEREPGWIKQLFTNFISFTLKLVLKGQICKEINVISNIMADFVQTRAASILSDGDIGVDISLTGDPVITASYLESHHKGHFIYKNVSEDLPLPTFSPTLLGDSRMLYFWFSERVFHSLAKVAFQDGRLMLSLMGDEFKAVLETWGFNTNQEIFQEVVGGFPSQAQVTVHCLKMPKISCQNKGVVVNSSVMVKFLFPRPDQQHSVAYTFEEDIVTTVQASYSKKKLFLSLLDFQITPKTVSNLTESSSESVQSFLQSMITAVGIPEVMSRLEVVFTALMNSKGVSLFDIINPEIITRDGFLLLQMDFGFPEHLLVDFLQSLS

[2] = target: T2, Cholesteryl ester transfer protein (Homo sapiens, UniProt P11597); experiment: Inhibition of human plasma derived CETP; type: cell-free
T2 sequence (P11597 whole entry): T1 sequence (whole entry)

| Structure (SMILES) | inhibition [1] | IC50 [2] |
| --- | --- | --- |
| O[C@@H](CN1c2cccc(-c3cccc(OC(F)(F)F)c3)c2CC[C@H]1c1cccc(OC(F)(F)F)c1)C(F)(F)F | 20% | – |
| O[C@H](CN1c2cccc(-c3cccc(OC(F)(F)F)c3)c2CC[C@H]1c1cccc(OC(F)(F)F)c1)C(F)(F)F | 46% | – |
| OC(CN1c2cccc(-c3cccc(OC(F)(F)F)c3)c2CCC1c1cccc(OC(F)(F)C(F)F)c1)C(F)(F)F (single isomer, unassigned; 19) [listing 1 of 2 here] | – | 33 nM |
| OC(CN1c2cccc(-c3cccc(OC(F)(F)F)c3)c2CCC1c1cccc(OC(F)(F)C(F)F)c1)C(F)(F)F (single isomer, unassigned; 19) [listing 2 of 2 here] | 100% | – |
| OC(CN1c2cccc(-c3cccc(OC(F)(F)F)c3)c2CCC1c1cccc(OC(F)(F)C(F)F)c1)C(F)(F)F (single isomer, unassigned; 20) [listing 1 of 2 here] | – | 300 nM |
| OC(CN1c2cccc(-c3cccc(OC(F)(F)F)c3)c2CCC1c1cccc(OC(F)(F)C(F)F)c1)C(F)(F)F (single isomer, unassigned; 20) [listing 2 of 2 here] | 86% | – |
| OC(CN1c2cccc(-c3cccc(OC(F)(F)F)c3)c2CCC1c1cccc(OC(F)(F)C(F)F)c1)C(F)(F)F (single isomer, unassigned; 38) | 9% | – |
| OC(CN1c2cccc(-c3cccc(OC(F)(F)F)c3)c2CCC1c1cccc(OC(F)(F)C(F)F)c1)C(F)(F)F (single isomer, unassigned; 39) | 0% | – |
| N#Cc1cccc(-c2cccc3c2CCC(c2cccc(OC(F)(F)C(F)F)c2)N3CC(O)C(F)(F)F)c1 (single isomer, unassigned; diastereomer 1) [listing 1 of 2 here] | – | 235 nM |
| OC(CN1c2cccc(-c3cccc(Cl)c3)c2CCC1c1cccc(OC(F)(F)C(F)F)c1)C(F)(F)F (single isomer, unassigned; diastereomer 1) [listing 1 of 2 here] | – | 64 nM |
| COc1cccc(-c2cccc3c2CCC(c2cccc(OC(F)(F)C(F)F)c2)N3CC(O)C(F)(F)F)c1 (single isomer, unassigned; diastereomer 1) [listing 1 of 2 here] | – | 126 nM |
| OC(CN1c2cccc(-c3cccc(F)c3)c2CCC1c1cccc(OC(F)(F)C(F)F)c1)C(F)(F)F (single isomer, unassigned; diastereomer 1) [listing 1 of 2 here] | – | 117 nM |
| CCC1CCc2c(-c3cccc(OC(F)(F)F)c3)cccc2N1CC(O)C(F)(F)F (single isomer, unassigned; diastereomer 1) | 44% | – |
| CCc1cc(Oc2cccc3c2CCC(c2cccc(OC(F)(F)C(F)F)c2)N3CC(O)C(F)(F)F)ccc1Cl (single isomer, unassigned; diastereomer 1) | 62% | – |
| COCC(O)CN1c2cccc(-c3cccc(OC(F)(F)F)c3)c2CCC1c1cccc(OC(F)(F)F)c1 (single isomer, unassigned; diastereomer 1) | 13% | – |
| COc1cccc(-c2cccc3c2CCC(c2cccc(OC(F)(F)C(F)F)c2)N3CC(O)C(F)(F)F)c1 (single isomer, unassigned; diastereomer 1) [listing 2 of 2 here] | 68% | – |
| N#Cc1cccc(-c2cccc3c2CCC(c2cccc(OC(F)(F)C(F)F)c2)N3CC(O)C(F)(F)F)c1 (single isomer, unassigned; diastereomer 1) [listing 2 of 2 here] | 85% | – |
| OC(CCl)CN1c2cccc(-c3cccc(OC(F)(F)F)c3)c2CCC1c1cccc(OC(F)(F)F)c1 (single isomer, unassigned; diastereomer 1) | 56% | – |
| OC(CF)CN1c2cccc(-c3cccc(OC(F)(F)F)c3)c2CCC1c1cccc(OC(F)(F)F)c1 (single isomer, unassigned; diastereomer 1) | 70% | – |
| OC(CN1c2cccc(-c3cccc(C(F)(F)F)c3)c2CCC1c1cccc(OC(F)(F)C(F)F)c1)C(F)(F)F (single isomer, unassigned; diastereomer 1) | 93% | – |
| OC(CN1c2cccc(-c3cccc(Cl)c3)c2CCC1c1cccc(OC(F)(F)C(F)F)c1)C(F)(F)F (single isomer, unassigned; diastereomer 1) [listing 2 of 2 here] | 67% | – |
| OC(CN1c2cccc(-c3cccc(F)c3)c2CCC1c1cccc(OC(F)(F)C(F)F)c1)C(F)(F)F (single isomer, unassigned; diastereomer 1) [listing 2 of 2 here] | 93% | – |
| OC(CN1c2cccc(-c3cccc(OC(F)(F)F)c3)c2CCC1C1CCCCC1)C(F)(F)F (single isomer, unassigned; diastereomer 1) | 11% | – |
| OC(CN1c2cccc(-c3cccc(OC(F)(F)F)c3)c2CCC1c1ccc(OC(F)(F)C(F)F)cc1)C(F)(F)F (single isomer, unassigned; diastereomer 1) | 5% | – |
| OC(CN1c2cccc(-c3cccc(OC(F)(F)F)c3)c2CCC1c1ccccc1)C(F)(F)F (single isomer, unassigned; diastereomer 1) | 21% | – |
| OC(CN1c2cccc(-c3cccc(OC(F)(F)F)c3)c2CCC1c1cccs1)C(F)(F)F (single isomer, unassigned; diastereomer 1) | 28% | – |

| Structure (SMILES) | inhibition [1] | IC50 [2] |
| --- | --- | --- |
| OC(CN1c2cccc(-c3cccc(Cl)c3Cl)c2CCC1c1cccc(OC(F)(F)C(F)F)c1)C(F)(F)F (single isomer, unassigned; diastereomer 2) [listing 1 of 2 here] | – | 400 nM |
| CC(C)C(O)CN1c2cccc(-c3cccc(OC(F)(F)F)c3)c2CCC1c1cccc(OC(F)(F)F)c1 (single isomer, unassigned; diastereomer 2) | 22% | – |
| CCC1CCc2c(-c3cccc(OC(F)(F)F)c3)cccc2N1CC(O)C(F)(F)F (single isomer, unassigned; diastereomer 2) | 12% | – |
| CCc1cc(Oc2cccc3c2CCC(c2cccc(OC(F)(F)C(F)F)c2)N3CC(O)C(F)(F)F)ccc1Cl (single isomer, unassigned; diastereomer 2) | 86% | – |
| COc1cccc(-c2cccc3c2CCC(c2cccc(OC(F)(F)C(F)F)c2)N3CC(O)C(F)(F)F)c1 (single isomer, unassigned; diastereomer 2) | 38% | – |
| N#Cc1cccc(-c2cccc3c2CCC(c2cccc(OC(F)(F)C(F)F)c2)N3CC(O)C(F)(F)F)c1 (single isomer, unassigned; diastereomer 2) | 21% | – |
| OC(CCl)CN1c2cccc(-c3cccc(OC(F)(F)F)c3)c2CCC1c1cccc(OC(F)(F)F)c1 (single isomer, unassigned; diastereomer 2) | 0% | – |
| OC(CF)CN1c2cccc(-c3cccc(OC(F)(F)F)c3)c2CCC1c1cccc(OC(F)(F)F)c1 (single isomer, unassigned; diastereomer 2) | 13% | – |
| OC(CN1c2cccc(-c3cccc(C(F)(F)F)c3)c2CCC1c1cccc(OC(F)(F)C(F)F)c1)C(F)(F)F (single isomer, unassigned; diastereomer 2) | 37% | – |
| OC(CN1c2cccc(-c3cccc(Cl)c3)c2CCC1c1cccc(OC(F)(F)C(F)F)c1)C(F)(F)F (single isomer, unassigned; diastereomer 2) | 55% | – |
| OC(CN1c2cccc(-c3cccc(Cl)c3Cl)c2CCC1c1cccc(OC(F)(F)C(F)F)c1)C(F)(F)F (single isomer, unassigned; diastereomer 2) [listing 2 of 2 here] | 86% | – |
| OC(CN1c2cccc(-c3cccc(F)c3)c2CCC1c1cccc(OC(F)(F)C(F)F)c1)C(F)(F)F (single isomer, unassigned; diastereomer 2) | 52% | – |
| OC(CN1c2cccc(-c3cccc(OC(F)(F)F)c3)c2CCC1c1cccc(C(F)(F)F)c1)C(F)(F)F (single isomer, unassigned; diastereomer 2) | 37% | – |
| OC(CN1c2cccc(-c3cccc(OC(F)(F)F)c3)c2CCC1c1ccccc1)C(F)(F)F (single isomer, unassigned; diastereomer 2) | 6% | – |
| OC(CN1c2cccc(-c3cccc(OC(F)(F)F)c3)c2CCC1c1cccs1)C(F)(F)F (single isomer, unassigned; diastereomer 2) | 12% | – |
| CC(C)C(O)CN1c2cccc(-c3cccc(OC(F)(F)F)c3)c2CCC1c1cccc(OC(F)(F)F)c1 (single isomer, unassigned; form 1) | 79% | – |
| OC(CN1c2cccc(-c3cccc(OC(F)(F)F)c3)c2CCC1C1CCCCC1)C(F)(F)F (single isomer, unassigned; form 1) | 2% | – |
| CC(C)C(O)CN1c2cccc(-c3cccc(OC(F)(F)F)c3)c2CCC1c1cccc(OC(F)(F)F)c1 (single isomer, unassigned; form 2) | 0% | – |
| OC(CN1c2cccc(-c3cccc(OC(F)(F)F)c3)c2CCC1C1CCCCC1)C(F)(F)F (single isomer, unassigned; form 2) | 13% | – |
| OC(CN1c2cccc(-c3cccc(Cl)c3Cl)c2CCC1c1cccc(OC(F)(F)C(F)F)c1)C(F)(F)F (stereo in doubt; 17) | 67% | – |
| OC(CN1c2cccc(-c3cccc(OC(F)(F)F)c3)c2CCC1c1ccc(OC(F)(F)C(F)F)cc1)C(F)(F)F (stereo in doubt; 41) | 14% | – |
| OC(CN1c2cccc(-c3cccc(OC(F)(F)F)c3)c2CCC1c1cccc(C(F)(F)F)c1)C(F)(F)F (stereo in doubt; 48) [listing 1 of 2 here] | – | 143 nM |
| OC(CN1c2cccc(-c3cccc(OC(F)(F)F)c3)c2CCC1c1cccc(C(F)(F)F)c1)C(F)(F)F (stereo in doubt; 48) [listing 2 of 2 here] | 50% | – |
| OC(CN1c2cccc(-c3cccc(OC(F)(F)F)c3)c2CCC1c1cccc(OC(F)(F)F)c1)C(F)(F)F (stereo in doubt; 52) [listing 1 of 2 here] | – | 125 nM |
| OC(CN1c2cccc(-c3cccc(OC(F)(F)F)c3)c2CCC1c1cccc(OC(F)(F)F)c1)C(F)(F)F (stereo in doubt; 52) [listing 2 of 2 here] | 68% | – |
| OC(CN1c2cccc(-c3cccc(OC(F)(F)F)c3)c2CCC1c1cccc(OC(F)(F)F)c1)C(F)(F)F (stereo in doubt; 53) | 34% | – |
